Data set [1] in a line: Inhibition of ABCB1 in human HeLa S3 cells assessed as potentiation of paclitaxel-induced cytotoxicity by measuring paclitaxel IC50 at 5 uM measured after 72 hrs by SRB assay (Rvb = 26.50 +/- 4.1 nM). A general note: The SRB assay estimates cell density from bound dye.
Data set [2] can be described thus: Inhibition of ABCB1 in FLp-In-293 cells assessed as potentiation of vincristine-induced cytotoxicity by measuring vincristine IC50 at 5 uM measured after 72 hrs by SRB assay (Rvb = 6 +/- 0.2 nM).
The nature of data set [3]: Inhibition of ABCB1 in human KB-VIN cells assessed as potentiation of doxorubicin-induced cytotoxicity by measuring doxorubicin IC50 at 5 uM measured after 72 hrs by SRB assay (Rvb = 4736 +/- 59 nM).
Data set [4] can be described thus: Inhibition of ABCB1 in human HeLa S3 cells assessed as potentiation of doxorubicin-induced cytotoxicity by measuring doxorubicin IC50 at 5 uM measured after 72 hrs by SRB assay (Rvb = 242 +/- 5 nM).
Data set [5] can be described thus: Inhibition of ABCB1 in human HeLa S3 cells assessed as potentiation of paclitaxel-induced cytotoxicity by measuring paclitaxel IC50 at 2.5 uM measured after 72 hrs by SRB assay (Rvb = 26.50 +/- 4.1 nM).
A short description of data set [6]: Inhibition of ABCB1 in FLp-In-293 cells assessed as potentiation of doxorubicin-induced cytotoxicity by measuring doxorubicin IC50 at 5 uM measured after 72 hrs by SRB assay (Rvb = 80 +/- 10 nM).
Data set [7] can be described thus: Inhibition of ABCB1 in human KB-VIN cells assessed as potentiation of vincristine-induced cytotoxicity by measuring vincristine IC50 at 2.5 uM measured after 72 hrs by SRB assay (Rvb = 2867 +/- 142 nM).
Data set [8] is described as follows: Inhibition of ABCB1 in FLp-In-293 cells assessed as potentiation of doxorubicin-induced cytotoxicity by measuring doxorubicin IC50 at 2.5 uM measured after 72 hrs by SRB assay (Rvb = 80 +/- 10 nM).
Data set [9] in a line: Inhibition of ABCB1 in human KB-VIN cells assessed as potentiation of paclitaxel-induced cytotoxicity by measuring paclitaxel IC50 at 2.5 uM measured after 72 hrs by SRB assay (Rvb = 1762 +/- 63 nM).
The nature of data set [10]: Inhibition of ABCB1 in human HeLa S3 cells assessed as potentiation of vincristine-induced cytotoxicity by measuring vincristine IC50 at 2.5 uM measured after 72 hrs by SRB assay (Rvb = 4.55 +/- 0.28 nM).
The nature of data set [11]: Inhibition of human full-length ABCB1 expressed in FLp-In-293 cells assessed as potentiation of doxorubicin-induced cytotoxicity by measuring doxorubicin IC50 at 5 uM measured after 72 hrs by SRB assay (Rvb = 2264 +/- 196 nM).
Data set [12] can be described thus: Inhibition of ABCB1 in FLp-In-293 cells assessed as potentiation of paclitaxel-induced cytotoxicity by measuring paclitaxel IC50 at 2.5 uM measured after 72 hrs by SRB assay (Rvb = 11.8 +/- 1.13 nM).
Data set [13] in a line: Inhibition of ABCB1 in FLp-In-293 cells assessed as potentiation of paclitaxel-induced cytotoxicity by measuring paclitaxel IC50 at 5 uM measured after 72 hrs by SRB assay (Rvb = 11.8 +/- 1.13 nM).
Data set [14] in a line: Inhibition of human full-length ABCB1 expressed in FLp-In-293 cells assessed as potentiation of vincristine-induced cytotoxicity by measuring vincristine IC50 at 2.5 uM measured after 72 hrs by SRB assay (Rvb = 823 +/- 16 nM).
Data set [15] can be described thus: Inhibition of ABCB1 in human HeLa S3 cells assessed as potentiation of doxorubicin-induced cytotoxicity by measuring doxorubicin IC50 at 2.5 uM measured after 72 hrs by SRB assay (Rvb = 242 +/- 5 nM).
A short description of data set [16]: Inhibition of ABCB1 in human HeLa S3 cells assessed as potentiation of vincristine-induced cytotoxicity by measuring vincristine IC50 at 5 uM measured after 72 hrs by SRB assay (Rvb = 4.55 +/- 0.28 nM).
Data set [17] is described as follows: Inhibition of ABCB1 in human KB-VIN cells assessed as potentiation of doxorubicin-induced cytotoxicity by measuring doxorubicin IC50 at 2.5 uM measured after 72 hrs by SRB assay (Rvb = 4736 +/- 59 nM).
A short description of data set [18]: Inhibition of human full-length ABCB1 expressed in FLp-In-293 cells assessed as potentiation of paclitaxel-induced cytotoxicity by measuring paclitaxel IC50 at 5 uM measured after 72 hrs by SRB assay (Rvb = 797 +/- 73 nM).
Data set [19] in a line: Inhibition of human full-length ABCB1 expressed in FLp-In-293 cells assessed as potentiation of doxorubicin-induced cytotoxicity by measuring doxorubicin IC50 at 2.5 uM measured after 72 hrs by SRB assay (Rvb = 2264 +/- 196 nM).
A short description of data set [20]: Inhibition of ABCB1 in human KB-VIN cells assessed as potentiation of paclitaxel-induced cytotoxicity by measuring paclitaxel IC50 at 5 uM measured after 72 hrs by SRB assay (Rvb = 1762 +/- 63 nM).
Data set [21] is described as follows: Inhibition of ABCB1 in human KB-VIN cells assessed as potentiation of vincristine-induced cytotoxicity by measuring vincristine IC50 at 5 uM measured after 72 hrs by SRB assay (Rvb = 2867 +/- 142 nM).
The nature of data set [22]: Inhibition of ABCB1 in FLp-In-293 cells assessed as potentiation of vincristine-induced cytotoxicity by measuring vincristine IC50 at 2.5 uM measured after 72 hrs by SRB assay (Rvb = 6 +/- 0.2 nM).
Data set [23] can be described thus: Inhibition of human full-length ABCB1 expressed in FLp-In-293 cells assessed as potentiation of vincristine-induced cytotoxicity by measuring vincristine IC50 at 5 uM measured after 72 hrs by SRB assay (Rvb = 823 +/- 16 nM).
A short description of data set [24]: Inhibition of human full-length ABCB1 expressed in FLp-In-293 cells assessed as potentiation of paclitaxel-induced cytotoxicity by measuring paclitaxel IC50 at 2.5 uM measured after 72 hrs by SRB assay (Rvb = 797 +/- 73 nM).

Each structure is given as a SMILES string.

Regarding `COc1ccc(-c2cc(OC(C)=O)c3c(-c4cccs4)c(NC(=O)c4ccccc4C)oc3c2)cc1`, the half-inhibitory concentration (IC50) (as a rule, the point on the concentration scale where inhibition reaches its midpoint) worked out at 8.9 nM in data set [1]; 0.83 nM in data set [2]; 397 nM in data set [3]; 103 nM in data set [4]; 11 nM in data set [5]; 82 nM in data set [6]. Also, the IC50 in data set [7] came out at 36 nM; in [8] it was 89 nM; in data set [9] it was 345 nM; in data set [10], 5.1 nM; in data set [11], 478 nM; in [12] it was 9.1 nM. Also, the IC50 in data set [13] was 7.2 nM; in [14], 84 nM; in data set [15], 116 nM; in data set [16], 3.7 nM; in [17], 1550 nM; in [18] it was 55 nM. Also, the IC50 in [19] came out at 525 nM; in data set [20], 46 nM; in data set [21], 6.5 nM; in [22], 0.88 nM; in [23] it was 8.9 nM; in [24] it was 109 nM.
Take `COc1ccc(-c2cc(OC(C)=O)c3c(-c4cccs4)c(NC(=O)c4ccccc4Cl)oc3c2)cc1`: the half-maximal inhibitory concentration (IC50) in [1] was determined as 8.8 nM; in [2] it was 0.82 nM; in data set [3], 102 nM; in data set [4] it was 86 nM; in [5], 9.6 nM; in data set [6] it was 73 nM. For the same compound, the IC50 in [7] was 37 nM; in [8], 77 nM; in data set [9] it was 80 nM; in [10], 3.9 nM; in data set [11], 502 nM; in data set [12], 6.4 nM. Further, the half-maximal inhibitory concentration (IC50) in data set [13] was found to be 6.3 nM; in data set [14], 114 nM; in data set [15], 111 nM; in [16] it was 2.2 nM; in [18], 91 nM; in data set [19], 564 nM. The IC50 in data set [20] was found to be 21 nM; in data set [21], 7.6 nM; in [22], 0.88 nM; in [23], 9.2 nM; in data set [24] it was 602 nM.
As to `COc1ccc(-c2cc(OC(C)=O)c3c(-c4cccs4)c(NC(=O)c4cccc(F)c4)oc3c2)cc1`, the IC50 in [1] turned out to be 11 nM; in data set [2], 3.7 nM; in data set [3], 1400 nM; in [4] it was 87 nM; in data set [5], 12 nM; in data set [6] it was 82 nM. Besides, the IC50 was 60 nM in data set [7]; 81 nM in data set [8]; 116 nM in data set [9]; 5.4 nM in [10]; 504 nM in data set [11]; 6.6 nM in data set [12]. Also, the IC50 in data set [13] amounted to 5.3 nM; in data set [14], 96 nM; in data set [15] it was 93 nM; in [16], 4.7 nM; in data set [17] it was 2210 nM; in [18] it was 77 nM. The IC50 turned out to be 559 nM in [19]; 48 nM in data set [20]; 12 nM in [21]; 6.3 nM in data set [22]; 25 nM in data set [23]; 621 nM in data set [24].
On to `COc1ccc(-c2cc(OC(C)=O)c3c(-c4cccs4)c(N(C(C)=O)C(C)=O)oc3c2)cc1`, for which the 50% inhibitory concentration (IC50) in data set [1] was 14 nM; in [2], 4 nM; in data set [3], 1500 nM; in data set [4] it was 102 nM; in [5] it was 14 nM; in data set [6] it was 82 nM. For the same compound, the IC50 in [7] came to 501 nM; in data set [8], 87 nM; in data set [9], 652 nM; in [10], 5.7 nM; in data set [11] it was 677 nM; in [12], 11 nM. Further, the IC50 in data set [13] is 10 nM; in [14], 663 nM; in [15], 105 nM; in data set [16], 5.2 nM; in data set [17], 1740 nM; in data set [18] it was 645 nM. Also, the half-maximal inhibitory concentration (IC50) was 874 nM in data set [19]; 597 nM in data set [20]; 314 nM in [21]; 4.5 nM in [22]; 582 nM in [23]; 647 nM in data set [24].

The record behind these values is BindingDB's records for doi:10.1016/j.ejmech.2020.112422 (China Medical University, 2020).
